Laboratory results published in PMC2804074 (Journal of medicinal chemistry, 2010).

Key:
[1] = test system: inteleukine-2 (IL-2) release in Jurkat cells; details: 10 μM compound; cited from earlier work
[2] = test system: transient global ischemia; details: gerbils; i.p. doses ≥ 60 mg/kg; cited from earlier work
p38 [3] = biological target: T1, p38 (Homo sapiens, UniProt Q16539); test: biochemical
[4] = Microsomal stability, rat; type: in vitro ADME; details: 2 mg/mL rat liver microsomes, 1 μM compound
JNK3 = JNK3 (Homo sapiens, UniProt P53779)
Chain of JNK3 (P53779 1-422 isoform P53779-2): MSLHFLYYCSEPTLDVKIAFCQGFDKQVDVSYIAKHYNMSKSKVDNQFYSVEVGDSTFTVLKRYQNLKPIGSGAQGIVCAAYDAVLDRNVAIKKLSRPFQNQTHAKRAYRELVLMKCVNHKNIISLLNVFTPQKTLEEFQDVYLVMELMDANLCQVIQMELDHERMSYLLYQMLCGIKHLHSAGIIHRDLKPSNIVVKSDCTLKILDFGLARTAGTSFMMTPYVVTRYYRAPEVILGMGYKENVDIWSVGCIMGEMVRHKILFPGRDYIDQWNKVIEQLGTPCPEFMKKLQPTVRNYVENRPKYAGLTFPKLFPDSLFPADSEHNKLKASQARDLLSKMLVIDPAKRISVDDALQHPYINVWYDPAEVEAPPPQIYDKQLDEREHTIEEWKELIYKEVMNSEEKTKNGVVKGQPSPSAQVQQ

[5] = test system: c-jun phosphorylation in INS-1 β-pancreatic cells; type: cell-based, rat; details: for decrease in potency (shift) for c-jun phosphorylation cell-based assay compared to JNK1 biochemical IC50: cell-based versus JNK1 biochemical
[6] = Microsomal stability, human; type: in vitro ADME; details: 2 mg/mL human liver microsomes, 1 μM compound
[7] = Microsomal stability, mouse; type: in vitro ADME; details: 2 mg/mL mouse liver microsomes, 1 μM compound
CYP2D6 = CYP2D6 (Homo sapiens, UniProt P10635); test: P450 inhibition, bufuralol hydroxylation; type: in vitro ADME; details: probe bufuralol
Chain of CYP2D6 (P10635 whole entry): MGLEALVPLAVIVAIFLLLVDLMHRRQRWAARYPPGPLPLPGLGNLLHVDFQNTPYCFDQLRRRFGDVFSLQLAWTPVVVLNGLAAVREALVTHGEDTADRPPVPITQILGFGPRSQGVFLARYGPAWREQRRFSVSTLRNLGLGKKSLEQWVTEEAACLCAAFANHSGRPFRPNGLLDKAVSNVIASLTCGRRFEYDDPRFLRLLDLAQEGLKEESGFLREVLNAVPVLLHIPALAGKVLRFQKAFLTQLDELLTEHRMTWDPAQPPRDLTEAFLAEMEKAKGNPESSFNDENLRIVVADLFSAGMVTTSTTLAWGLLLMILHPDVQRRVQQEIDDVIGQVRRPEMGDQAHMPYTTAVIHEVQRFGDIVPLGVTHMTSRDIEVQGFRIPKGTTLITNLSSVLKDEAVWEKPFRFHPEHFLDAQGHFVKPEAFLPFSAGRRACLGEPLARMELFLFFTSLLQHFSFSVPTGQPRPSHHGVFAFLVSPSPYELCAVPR

CYP3A4 = CYP3A4 (Homo sapiens, UniProt P08684); test: P450 inhibition, midazolam hydroxylation; type: in vitro ADME; details: probe midazolam
Chain of CYP3A4 (P08684 whole entry): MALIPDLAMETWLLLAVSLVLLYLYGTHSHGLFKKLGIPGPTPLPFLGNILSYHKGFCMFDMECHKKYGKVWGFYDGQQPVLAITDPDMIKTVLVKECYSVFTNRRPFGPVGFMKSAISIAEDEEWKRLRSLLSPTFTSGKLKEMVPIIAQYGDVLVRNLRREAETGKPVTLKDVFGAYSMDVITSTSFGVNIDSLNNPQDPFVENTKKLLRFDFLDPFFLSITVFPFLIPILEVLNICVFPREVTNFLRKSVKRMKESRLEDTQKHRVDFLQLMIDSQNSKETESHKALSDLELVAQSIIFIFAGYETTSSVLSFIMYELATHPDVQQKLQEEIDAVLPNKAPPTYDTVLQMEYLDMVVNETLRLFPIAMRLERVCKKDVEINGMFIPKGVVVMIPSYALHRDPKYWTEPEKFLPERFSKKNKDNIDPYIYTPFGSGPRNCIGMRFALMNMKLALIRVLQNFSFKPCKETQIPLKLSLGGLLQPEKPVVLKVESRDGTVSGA

CYP1A2 = biological target: T2, CYP1A2 (Homo sapiens, UniProt P05177); test: P450 inhibition, phenaceten demethylation; type: in vitro ADME; details: probe phenaceten
T2 sequence (P05177 1-516): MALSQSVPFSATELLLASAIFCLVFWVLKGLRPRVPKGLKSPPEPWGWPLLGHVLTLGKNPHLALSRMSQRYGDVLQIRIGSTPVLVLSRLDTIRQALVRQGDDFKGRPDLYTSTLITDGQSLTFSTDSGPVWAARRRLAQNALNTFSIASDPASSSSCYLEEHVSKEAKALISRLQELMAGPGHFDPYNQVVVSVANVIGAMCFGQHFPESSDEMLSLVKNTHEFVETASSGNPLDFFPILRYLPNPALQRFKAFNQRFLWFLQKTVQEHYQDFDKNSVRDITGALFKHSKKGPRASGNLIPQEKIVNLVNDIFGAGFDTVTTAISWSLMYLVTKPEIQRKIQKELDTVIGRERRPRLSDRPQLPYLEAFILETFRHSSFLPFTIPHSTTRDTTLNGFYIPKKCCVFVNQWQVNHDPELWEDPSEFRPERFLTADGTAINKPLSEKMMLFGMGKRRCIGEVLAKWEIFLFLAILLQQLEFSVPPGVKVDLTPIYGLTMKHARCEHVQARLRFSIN

CYP2C9 = CYP2C9 (Homo sapiens, UniProt P11712); test: P450 inhibition, tolbutamide hydroxylation; type: in vitro ADME; details: probe tolbutamide
Chain of CYP2C9 (P11712 whole entry): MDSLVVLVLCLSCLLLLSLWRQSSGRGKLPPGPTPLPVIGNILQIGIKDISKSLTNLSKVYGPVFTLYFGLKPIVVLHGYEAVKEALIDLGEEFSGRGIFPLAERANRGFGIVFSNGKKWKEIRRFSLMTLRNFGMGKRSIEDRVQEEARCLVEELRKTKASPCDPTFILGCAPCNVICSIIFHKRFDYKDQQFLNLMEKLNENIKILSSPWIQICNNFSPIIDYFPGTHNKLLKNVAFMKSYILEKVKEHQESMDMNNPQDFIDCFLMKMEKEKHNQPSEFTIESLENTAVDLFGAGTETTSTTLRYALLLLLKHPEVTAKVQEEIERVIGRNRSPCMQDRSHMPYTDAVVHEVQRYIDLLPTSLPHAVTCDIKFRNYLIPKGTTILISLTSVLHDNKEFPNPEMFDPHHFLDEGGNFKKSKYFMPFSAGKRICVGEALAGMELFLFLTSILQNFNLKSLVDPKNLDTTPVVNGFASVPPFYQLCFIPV

p38 [8] = biological target: T1, p38; details: JNK versus p38
JNK1 = JNK1 (Homo sapiens, UniProt P45983); test: Homogeneous time resolved fluorescence biochemical assay, JNK1
Chain of JNK1 (P45983 whole entry): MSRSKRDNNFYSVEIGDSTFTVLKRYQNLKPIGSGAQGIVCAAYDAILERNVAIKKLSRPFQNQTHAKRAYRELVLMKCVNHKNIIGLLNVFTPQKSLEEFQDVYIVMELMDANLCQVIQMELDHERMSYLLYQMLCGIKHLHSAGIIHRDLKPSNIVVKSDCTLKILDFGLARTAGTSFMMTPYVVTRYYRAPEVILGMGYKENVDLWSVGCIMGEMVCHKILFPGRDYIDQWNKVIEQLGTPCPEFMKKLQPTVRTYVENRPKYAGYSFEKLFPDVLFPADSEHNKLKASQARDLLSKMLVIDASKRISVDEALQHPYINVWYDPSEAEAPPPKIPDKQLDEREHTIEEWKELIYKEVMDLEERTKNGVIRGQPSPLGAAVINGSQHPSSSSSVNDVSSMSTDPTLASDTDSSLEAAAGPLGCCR

MAPK3K1-4 = test: Kinase counterscreen, MAPK3K1-4; type: biochemical; details: 3 μM
ASK-1 = biological target: T3, ASK-1 (Homo sapiens, UniProt Q99683); test: Kinase counterscreen, ASK-1; type: biochemical; details: 3 μM
T3 sequence (Q99683 1-1374): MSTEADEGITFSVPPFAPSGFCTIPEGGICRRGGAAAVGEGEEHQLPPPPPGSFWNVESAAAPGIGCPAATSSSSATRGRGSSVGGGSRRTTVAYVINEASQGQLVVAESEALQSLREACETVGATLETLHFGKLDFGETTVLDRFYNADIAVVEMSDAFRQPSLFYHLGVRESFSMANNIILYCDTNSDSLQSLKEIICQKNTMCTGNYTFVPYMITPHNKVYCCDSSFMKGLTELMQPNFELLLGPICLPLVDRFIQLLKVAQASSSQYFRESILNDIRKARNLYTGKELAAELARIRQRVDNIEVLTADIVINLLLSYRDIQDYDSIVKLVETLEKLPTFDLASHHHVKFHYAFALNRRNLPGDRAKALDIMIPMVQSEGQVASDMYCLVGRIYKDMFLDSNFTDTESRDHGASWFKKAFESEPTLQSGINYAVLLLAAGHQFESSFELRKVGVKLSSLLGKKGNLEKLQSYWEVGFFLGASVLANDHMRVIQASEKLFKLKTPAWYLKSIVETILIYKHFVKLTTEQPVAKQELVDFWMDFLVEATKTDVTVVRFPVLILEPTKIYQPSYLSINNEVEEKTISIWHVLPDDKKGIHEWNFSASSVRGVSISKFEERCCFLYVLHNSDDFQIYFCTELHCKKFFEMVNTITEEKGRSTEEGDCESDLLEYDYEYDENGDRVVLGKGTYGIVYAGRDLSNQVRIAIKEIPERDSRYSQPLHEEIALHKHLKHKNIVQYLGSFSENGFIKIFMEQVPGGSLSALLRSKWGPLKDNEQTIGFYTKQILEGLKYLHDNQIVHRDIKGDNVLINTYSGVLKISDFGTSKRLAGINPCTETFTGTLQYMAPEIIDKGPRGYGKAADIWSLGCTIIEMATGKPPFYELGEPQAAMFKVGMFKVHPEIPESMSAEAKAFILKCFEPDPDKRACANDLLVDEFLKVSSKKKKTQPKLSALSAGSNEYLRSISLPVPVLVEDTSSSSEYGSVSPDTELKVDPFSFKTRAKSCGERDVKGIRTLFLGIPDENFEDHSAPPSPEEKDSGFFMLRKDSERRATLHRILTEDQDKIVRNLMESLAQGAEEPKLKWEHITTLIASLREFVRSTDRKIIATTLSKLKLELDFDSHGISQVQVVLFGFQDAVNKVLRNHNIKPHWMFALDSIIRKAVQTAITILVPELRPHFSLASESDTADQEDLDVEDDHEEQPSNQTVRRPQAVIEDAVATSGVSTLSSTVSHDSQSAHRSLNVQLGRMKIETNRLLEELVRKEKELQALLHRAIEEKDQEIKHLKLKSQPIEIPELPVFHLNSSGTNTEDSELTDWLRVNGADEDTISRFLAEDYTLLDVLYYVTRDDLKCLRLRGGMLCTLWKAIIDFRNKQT

panel of 400 kinases = test: Broad counterscreening against a panel of 400 kinases; type: biochemical; details: 3 μM; out of 400 kinases
MLK1-3 = test: Kinase counterscreen, MLK1-3; type: biochemical; details: 3 μM
MKK4 = biological target: T4, MKK4 (Homo sapiens, UniProt P45985); test: Kinase counterscreen, MKK4; type: biochemical; details: 3 μM
T4 sequence (P45985 1-399): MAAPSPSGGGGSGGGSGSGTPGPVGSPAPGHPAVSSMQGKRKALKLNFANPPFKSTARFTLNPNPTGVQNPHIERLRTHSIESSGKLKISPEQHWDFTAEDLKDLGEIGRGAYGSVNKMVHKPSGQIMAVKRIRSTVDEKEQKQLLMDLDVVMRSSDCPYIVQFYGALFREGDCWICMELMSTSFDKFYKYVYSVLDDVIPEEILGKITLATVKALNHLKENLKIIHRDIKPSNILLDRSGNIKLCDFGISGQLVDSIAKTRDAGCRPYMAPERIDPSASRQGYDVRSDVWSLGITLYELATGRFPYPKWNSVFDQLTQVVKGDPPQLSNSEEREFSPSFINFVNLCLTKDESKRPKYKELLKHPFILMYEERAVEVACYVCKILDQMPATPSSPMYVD

MKK7 = biological target: T5, MKK7 (Homo sapiens, UniProt O14733); test: Kinase counterscreen, MKK7; type: biochemical; details: 3 μM
T5 sequence (O14733 1-419): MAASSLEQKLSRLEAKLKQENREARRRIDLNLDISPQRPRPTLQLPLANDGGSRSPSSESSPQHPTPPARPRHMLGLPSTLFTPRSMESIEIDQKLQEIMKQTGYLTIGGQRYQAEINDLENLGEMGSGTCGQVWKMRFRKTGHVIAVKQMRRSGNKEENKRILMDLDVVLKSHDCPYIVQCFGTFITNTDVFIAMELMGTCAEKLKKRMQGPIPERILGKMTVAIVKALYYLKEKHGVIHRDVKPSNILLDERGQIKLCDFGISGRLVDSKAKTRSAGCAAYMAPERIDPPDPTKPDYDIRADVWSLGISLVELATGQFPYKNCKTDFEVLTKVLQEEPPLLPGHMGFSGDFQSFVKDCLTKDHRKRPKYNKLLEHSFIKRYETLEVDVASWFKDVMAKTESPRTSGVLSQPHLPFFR

T1 sequence (Q16539 whole entry): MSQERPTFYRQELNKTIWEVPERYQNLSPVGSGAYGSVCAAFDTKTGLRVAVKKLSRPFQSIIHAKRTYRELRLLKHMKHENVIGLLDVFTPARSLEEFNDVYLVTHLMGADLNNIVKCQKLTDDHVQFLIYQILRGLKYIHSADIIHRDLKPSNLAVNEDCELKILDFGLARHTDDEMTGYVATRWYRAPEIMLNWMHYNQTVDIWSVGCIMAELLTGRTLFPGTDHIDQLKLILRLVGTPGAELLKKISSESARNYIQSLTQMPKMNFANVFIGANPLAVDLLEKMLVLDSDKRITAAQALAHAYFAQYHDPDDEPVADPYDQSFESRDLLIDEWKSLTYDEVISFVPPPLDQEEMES

1,3-benzothiazol-2-yl (2-[[2-(3-pyridinyl) ethyl] amino]-4 pyrimidinyl) acetonitrile [AS601245]
inhibition of IL-2 release in Jurkat cells [1]: 90%
efficacy in transient global ischemia models [2]: efficacious

NC(=O)c1ccc(Nc2nccc(-c3ccccc3)n2)cc1 [Compound 9a]
IC50 (p38 [3]): > 20 µM

c1cc(-c2ccnc(Nc3ccc(-n4ccnn4)cc3)n2)cc(N2CCOCC2)c1 [Compound 9c]
IC50 (p38 [3]): > 20 µM

CS(=O)(=O)Nc1ccc(-c2ccnc(Nc3ccc(S(N)(=O)=O)cc3)n2)cc1 [Compound 9d]
IC50 (p38 [3]): > 20 µM

CS(=O)(=O)Nc1ccc(-c2ccnc(Nc3ccc(-n4ccnn4)cc3)n2)cc1 [Compound 9e]
Microsomal Stability (half life), rat [4]: poor microsomal stability
IC50 (p38 [3]): > 20 µM
fold more potent versus JNK3 than compound 9c (JNK3; compared to 9c): 91 fold
decrease in potency (shift) for c-jun phosphorylation cell-based assay compared to JNK1 biochemical IC50 [5]: 13 fold
Microsomal Stability (half life), human [6]: poor microsomal stability
Microsomal Stability (half life), mouse [7]: poor microsomal stability

Cc1ncn(-c2ccc(Nc3nccc(-c4cccc(N5CCOCC5)c4)n3)cc2)n1 [Compound 9f]
IC50 (p38 [3]): > 20 µM
inhibition at 15 min, 10 µM (CYP2D6): < 50%
inhibition at 15 min, 10 µM (CYP3A4): < 50%
inhibition at 15 min, 10 µM (CYP1A2): < 50%
inhibition at 15 min, 10 µM (CYP2C9): < 50%

Cc1ncn(-c2ccc(Nc3nccc(-c4cc(C#N)cc(N5CCOCC5)c4)n3)cc2)n1 [Compound 9g]
IC50 (p38 [3]): > 20 µM
selectivity over p38 (p38 [8]): greater than 135 fold
increase in potency for JNK1 inhibition compared to 9f (JNK1; compared to 9f): approximately 5 fold
increase in potency for JNK3 inhibition compared to 9f (JNK3; compared to 9f): approximately 5 fold
decrease in potency (shift) for c-jun phosphorylation cell-based assay compared to JNK1 biochemical IC50 [5]: essentially equipotent

Cn1nnc(-c2ccc(Nc3nccc(-c4cc(C#N)cc(N5CCOCC5)c4)n3)cc2)n1 [Compound 9h, 3-(2-(4-(2-methyl-2H-tetrazol-5-yl)phenylamino)pyrimidin-4-yl)-5-morpholinobenzonitrile]
IC50 (p38 [3]): > 20 µM
inhibition at 15 min, 10 µM (CYP2D6): ≤ 15%
difference in IC50 for JNK1 compared to 9g (JNK1; compared to 9g): less than 2 fold
inhibition at 15 min, 10 µM (CYP3A4): ≤ 15%
difference in IC50 for c-jun phosphorylation compared to 9g ([5]; compared to 9g): less than 2 fold
inhibition at 15 min, 10 µM (CYP1A2): ≤ 15%
inhibition at 15 min, 10 µM (CYP2C9): ≤ 15%

c1cncc(-c2ncn(-c3ccc(Nc4nccc(-c5cccc(N6CCOCC6)c5)n4)cc3)n2)c1 [Compound 9i, 4-(3-Morpholinophenyl)-N-(4-(3-(pyridin-3-yl)-1H-1,2,4-triazol-1-yl)phenyl)pyrimidin-2-amine]
IC50 (p38 [3]): > 20 µM

N#Cc1cc(-c2ccnc(Nc3ccc(-n4cnc(-c5ccccn5)n4)cc3)n2)cc(N2CCOCC2)c1 [Compound 9j, 3-Morpholino-5-(2-(4-(3-(pyridin-2-yl)-1H-1,2,4-triazol-1-yl)phenylamino)pyrimidin-4-yl)benzonitrile]
IC50 (p38 [3]): > 20 µM
inhibition at 15 min, 10 µM (CYP2D6): ≤ 33%
inhibition at 15 min, 10 µM (CYP3A4): ≤ 33%
inhibition at 15 min, 10 µM (CYP1A2): ≤ 33%
inhibition at 15 min, 10 µM (CYP2C9): ≤ 33%

CN1CCN(c2ncn(-c3ccc(Nc4nccc(-c5cc(F)cc(N6CCOCC6)c5)n4)cc3)n2)CC1 [Compound 9k]
IC50 (p38 [3]): > 20 µM
decrease in potency (shift) for c-jun phosphorylation cell-based assay compared to JNK1 biochemical IC50 [5]: essentially equipotent

Fc1cc(-c2cc[nH]/c(=N/c3ccc(-n4cnc(N5CCOCC5)n4)cc3)n2)cc(N2CCOCC2)c1 [Compound 9l]
inhibition of MAPK3K1-4 (MAPK3K1-4): no inhibition
inhibition of ASK-1 (ASK-1): no inhibition
number of kinases showing > 25% inhibition (panel of 400 kinases): 28
number of kinases showing greater than 70% biochemical inhibition (panel of 400 kinases): eleven
IC50 (p38 [3]): > 20 µM
inhibition of MLK1-3 (MLK1-3): no inhibition
inhibition at 15 min, 10 µM (CYP3A4): 70 to 90%
IC50 ([5]; read-out: cell-based IC50, inhibition of c-jun phosphorylation): ~0.05 µM
inhibition of MKK4 (MKK4): no inhibition
inhibition of MKK7 (MKK7): no inhibition
inhibition at 15 min, 10 µM (CYP1A2): 70 to 90%
inhibition at 15 min, 10 µM (CYP2C9): 70 to 90%
